{"source": "patent US20160051514A1", "about": "“METHODS FOR TREATMENT OF CARDIOMYOPATHY” (THE BRIGHAM AND WOMEN'S HOSPITAL, INC., priority 2013, published 2016)", "key": {"[1]": {"test_system": "2057del2 plakoglobin zebrafish", "assay": "Survival and cardiac physiology in the zebrafish model of ACM", "assay_type": "in vivo", "conditions": "data not shown", "method": "In-house software (implemented in MATLAB™) was used to determine heart rate, while measurements of ventricular long and short axes in both diastole and systole were obtained using ImageJ™. Cardiac output was measured as diastolic minus systolic ventricular volume multiplied by heart rate, as outlined by Shin et al (30). Fractional shortening was calculated as end-diastolic diameter minus end-systolic diameter divided by end-diastolic diameter.\nSurvival studies: Embryos were kept in petri dishes until 7 dpf and then transferred to nursery tanks with larval food. Observations for phenotype and survival were recorded for several weeks. Data are presented as a Kaplan-Meier curve using Graphpad™ software."}, "[2]": {"test_system": "neonatal rat ventricular myocytes expressing 2057del2 plakoglobin", "assay": "Immunofluorescence of intercalated disk proteins in neonatal rat ventricular myocytes", "assay_type": "cell-based", "conditions": "cells expressing 2057del2 plakoglobin; 5 μM, 24 hr", "method": "Neonatal rat ventricular myocyte isolation and culture, stretch protocols: Primary cardiac myocyte cultures were prepared from ventricles of 1-day-old Wistar rat pups (Charles River) as previously described.^9 Cells were plated on collagen-coated plastic chamber slides at a density of […] cells/cm^2 and grown for 4 days prior to experimentation. In selected experiments, monolayers grown on collagen--coated silicone membranes were subjected to linear pulsatile stretch using a custom-designed apparatus as described in previous studies.'° Cells were stretched to 110% of resting length at a. frequency of 3 Hz for 1-4 hr in serum-free medium. In other experiments cultures were incubated with reagents including pifitlirin A (5 μM, 1 hr) and SB216763 (5 μM, 24 hr) prior to experimentation. All protocols were approved by the Institutional Animal Care and Use Committee (IACUC).\nViral transfection: A recombinant adenoviral construct expressing 2057del2-plakoglobin was created with the ViraPower Adenoviral Expression system (Invitrogen) using the pAd/CMV/V5-DEST vector through LR clonase-mediated recombination. The V5-tag was used to identify the mutant protein and distinguish it from wildtype plakoglobin. Two days post-plating, monolayers were exposed to viral solution (1:130 dilution in serum-free media, 37° C.) for 1 hr after which viral solution was replaced with complete medium in the presence or absence of reagents.\nImmunofluoresence staining and microscopy in cultured cells: Cultures were rinsed in serum-free medium and fixed in 4% paraformaldehyde at room temperature for 5 min or in acetone at −20° C. for 10 min. Fixed cells were immunostained with mouse monoclonal anti-plakoglobin (Sigma), anti-N-cadhcrin (Sigma), anti-Cx43 (Millipore), anti-desmopla.kin (Fitzgerald), anti-SAP97 (Santa Cruz Biotechnology) antibodies and anti-Nav1.5 (kindly provided by Dr. Hugues Abriel, University of Bern, Switzerland) antibodies. Specific immunoreactive signal was detected by laser scanning confocal microscopy as previously described.”\nNeonatal rat ventricular myocyte isolation, culture, stretch protocols: Primary cardiac myocyte cultures were prepared from ventricles of 1-day-old Wistar rat pups (Charles River) as previously described (36). Cells were plated on collagen-coated plastic chamber slides at a density of 2.4×10^5 cells/cm2 and grown for 4 days prior to experimentation. In selected experiments, monolayers grown on collagen-coated silicone membranes were subjected to linear pulsatile stretch using a custom-designed apparatus as described in previous studies (35). Cells were stretched to 110% of resting length at a frequency of 3 Hz for 1-4 hr in serum-free medium. In other experiments cultures were incubated with reagents including pifithrin A (5 μM, 1 hr) and SB216763 (0.1-10 μM for 12 or 24 hr) prior to experimentation. Vehicle controls (DMSO) were included in all experiments.\nViral transfection: A recombinant adenoviral construct expressing 2057del2 plakoglobin was created with the ViraPower Adenoviral Expression™ system (Invitrogen) using the pAd/CMV/V5-DEST vector through LR clonase-mediated recombination. The V5-tag was used to identify the mutant protein and distinguish it from wildtype plakoglobin. Two days post-plating, monolayers were exposed to viral solution (1:130 dilution in serum-free media, 37° C.) for 1 hr after which viral solution was replaced with complete medium in the presence or absence of reagents. Immunofluorescence staining and microscopy in cultured cells: Cultures were rinsed in serum-free medium and fixed in 4% paraformaldehyde at 25° C. for 5 min or in acetone at −20° C. for 10 min. Fixed cells were immunostained with mouse monoclonal anti-plakoglobin (Sigma), anti-N-cadherin (Sigma), anti-Cx43 (Millipore), anti-desmoplakin (Fitzgerald), anti-SAP97 (Santa Cruz Biotechnology) antibodies and anti-Nav1.5 antibodies (rabbit polyclonal)."}, "[3]": {"test_system": "neonatal rat ventricular myocytes expressing 2057del2 plakoglobin", "assay": "TUNEL assay of myocyte apoptosis", "assay_type": "cell-based", "excerpt": "(§1) TUNEL assay: Apoptotic cells in cultures were detected by terminal deoxynucleotidyl transferase-mediated biotinylated UTP nick end-labeling (TUNEL) assay using the ApopTag™ Fluorescein Direct in Situ Apoptosis Detection Kit (Millipore) as previously described.^9 Nuclei were stained with DAPI, and TUNEL-positive and total nuclei were counted under a laser scanning confocal microscope in 5 fields per chamber.\nas §1, with “ApopTag” for “ApopTag™”, “KitTM” for “Kit”, “according to the manufacturer's instructions.” for “as previously described.^9”, “DAPI;” for “DAPI, and”, “chamber or silicone membrane in stretch experiments.” for “chamber.”"}}, "note": "Entries after “also recorded” stand apart in the source; their conditions may differ."}
{"smiles": "O=C1Nc2cc(Br)ccc2/C1=C1/Nc2ccccc2/C1=N\\O", "note": "[BIO, 6-bromoindirubin-3′-oxime, reference compound]", "values": [{"measurement": "Effectiveness of other GSK-3β inhibitors in attenuating the mutant phenotype compared with SB216763", "setting": "[1]", "result": "do not exhibit the therapeutic benefits; also recorded: none of which were as effective"}]}
{"smiles": "Cn1cc(C2=C(c3coc4ccccc34)C(=O)NC2=O)c2cc(Br)ccc21", "note": "[BIP 135, reference compound]", "values": [{"measurement": "Effectiveness of other GSK-3β inhibitors in attenuating the mutant phenotype compared with SB216763", "setting": "[1]", "result": "none of which were as effective"}]}
{"smiles": "Cc1c[nH]c(-c2cnc(NCCNc3ccc(C#N)cn3)nc2-c2ccc(Cl)cc2Cl)n1", "note": "[CHIR99021, reference compound]", "values": [{"measurement": "Effectiveness of other GSK-3β inhibitors in attenuating the mutant phenotype compared with SB216763", "setting": "[1]", "result": "do not exhibit the therapeutic benefits; also recorded: none of which were as effective"}, {"measurement": "Subcellular distribution of plakoglobin immunoreactive signal (junctional vs intracellular/nuclear)", "setting": "[2]", "result": "intensified plakoglobin signal in nuclei"}]}
{"smiles": "[Cl-].[Li+]", "note": "[LiC1, reference compound]", "values": [{"measurement": "Effectiveness of other GSK-3β inhibitors in attenuating the mutant phenotype compared with SB216763", "setting": "[1]", "result": "none of which were as effective"}]}
{"smiles": "O=C(Nc1ccc([N+](=O)[O-])cc1Cl)c1cc(Cl)ccc1O", "note": "[niclosamide, reference compound]", "values": [{"measurement": "Subcellular distribution of plakoglobin immunoreactive signal (junctional vs intracellular/nuclear)", "setting": "[2]", "result": "increased nuclear localization of plakoglobin"}]}
{"smiles": "Cc1ccc(C(=O)Cn2c3c(sc2=N)CCCC3)cc1", "note": "[pifithrin-A, reference compound]", "values": [{"measurement": "Apoptosis in transfected myocytes exposed to stretch", "setting": "[3]; 4 hr of stretch, vs stretch without inhibitor", "result": "significantly reduced apoptosis"}, {"measurement": "Apoptosis in cells expressing 2057del2 plakoglobin", "setting": "[3]; pifithrin-A 5 μM", "result": "could be prevented"}]}
